# Species: Rattus norvegicus
# Experiment: Open TG-GATES - Regimen: Daily Repeat
# Format: toxicity, organism-based, Sprague-Dawley
# Set-up: regimen Daily Repeat, gender Male, age 6 weeks
# Conditions: in vivo, po, route gavage; for A/G / ALP / ALT / AST / BUN / CRE / Ca / Cl / DBIL / GLC / IP / K / LDH / Na / PL / RALB / TBIL / TC / TG / TP / gamma-GTP: tissue Plasma; for APTT / Bas / Eos / Fbg / Hb / Ht / Lym / MCH / MCHC / MCV / Mono / Neu / PT / Plat / RBC / Ret / WBC: tissue Blood; for KIDNEY_L / KIDNEY_R / KIDNEY_TOTAL: tissue Kidney; for LIVER: tissue Liver
# [1] = 1 mg/kg, […], dose level Low, time 14 day
# [2] = 1 mg/kg, […], dose level Low, time 28 day
# [3] = 2 mg/kg, 72 h, dose level Middle, time 3 day
# [4] = 2 mg/kg, […], dose level Middle, time 7 day
# [5] = 2 mg/kg, […], dose level Middle, time 14 day
# [6] = 2 mg/kg, […], dose level Middle, time 28 day
# [7] = 5 mg/kg, 72 h, dose level High, time 3 day
# [8] = 5 mg/kg, […], dose level High, time 7 day
# [9] = 5 mg/kg, […], dose level High, time 14 day
structure (smiles),measurement,setting,value
COc1ccc2c(c1)c(CC(=O)O)c(C)n2C(=O)c1ccc(Cl)cc1 [INDOMETHACIN],A/G,[1],1.8
same,ALP,[1],725.6 IU/L
same,ALT,[1],33.6 IU/L
same,AST,[1],60.6 IU/L
same,BUN,[1],19.6 mg/dL
same,CRE,[1],0.6 mg/dL
same,Ca,[1],10.5 mg/dL
same,Cl,[1],105.6 meq/L
same,DBIL,[1],0.004 mg/dL
same,GLC,[1],194.8 mg/dL
same,IP,[1],8.1 mg/dL
same,K,[1],4.5 meq/L
same,LDH,[1],87.2 IU/L
same,Na,[1],139.4 meq/L
same,PL,[1],165.2 mg/dL
same,RALB,[1],4.2 g/dL
same,TBIL,[1],0.3 mg/dL
same,TC,[1],81.2 mg/dL
same,TG,[1],161 mg/dL
same,TP,[1],6.5 g/dL
same,gamma-GTP,[1],1.4 IU/L
same,A/G,[2],1.9
same,ALP,[2],695.6 IU/L
same,ALT,[2],31 IU/L
same,AST,[2],62.6 IU/L
same,BUN,[2],21.6 mg/dL
same,CRE,[2],0.7 mg/dL
same,Ca,[2],10.6 mg/dL
same,Cl,[2],106.6 meq/L
same,DBIL,[2],0.008 mg/dL
same,GLC,[2],203.8 mg/dL
same,IP,[2],7.8 mg/dL
same,K,[2],4.2 meq/L
same,LDH,[2],101.8 IU/L
same,Na,[2],139.6 meq/L
same,PL,[2],157.8 mg/dL
same,RALB,[2],4.2 g/dL
same,TBIL,[2],0.3 mg/dL
same,TC,[2],77.8 mg/dL
same,TG,[2],178.4 mg/dL
same,TP,[2],6.5 g/dL
same,gamma-GTP,[2],1.2 IU/L
same,TERMINAL_BW,[3],238.9 g
same,APTT,[3],16 s
same,Bas,[3],0%
same,Eos,[3],0.6%
same,Fbg,[3],218.2 mg/dL
same,Hb,[3],13.5 g/dL
same,Ht,[3],40.5%
same,Lym,[3],82.2%
same,MCH,[3],21.1 pg
same,MCHC,[3],33.4%
same,MCV,[3],63.3 fL
same,Mono,[3],6.4%
same,Neu,[3],10.8%
same,PT,[3],11.1 s
same,Plat,[3],112.9 x10_4/uL
same,RBC,[3],638.8 x10_4/ul
same,Ret,[3],7.1%
same,WBC,[3],126.4 x10_2/uL
same,KIDNEY_L,[3],1.1 g
same,KIDNEY_R,[3],1.1 g
same,KIDNEY_TOTAL,[3],2.1 g
same,LIVER,[3],11.6 g
same,A/G,[3],2.1
same,ALP,[3],1212.4 IU/L
same,ALT,[3],32.8 IU/L
same,AST,[3],62 IU/L
same,BUN,[3],17 mg/dL
same,CRE,[3],0.6 mg/dL
same,Ca,[3],10.5 mg/dL
same,Cl,[3],107.2 meq/L
same,DBIL,[3],0.058 mg/dL
same,GLC,[3],199.6 mg/dL
same,IP,[3],8.3 mg/dL
same,K,[3],4.9 meq/L
same,LDH,[3],91.6 IU/L
same,Na,[3],139.6 meq/L
same,PL,[3],143.8 mg/dL
same,RALB,[3],3.9 g/dL
same,TBIL,[3],0.4 mg/dL
same,TC,[3],78.2 mg/dL
same,TG,[3],64.8 mg/dL
same,TP,[3],5.7 g/dL
same,gamma-GTP,[3],1 IU/L
same,TERMINAL_BW,[4],284.3 g
same,TERMINAL_BW,[5],341.8 g
same,TERMINAL_BW,[6],428.5 g
same,APTT,[4],16.5 s
same,Bas,[4],0%
same,Eos,[4],1%
same,Fbg,[4],240 mg/dL
same,Hb,[4],13.7 g/dL
same,Ht,[4],41.4%
same,Lym,[4],79.8%
same,MCH,[4],20.6 pg
same,MCHC,[4],33.1%
same,MCV,[4],62.2 fL
same,Mono,[4],8%
same,Neu,[4],11.6%
same,PT,[4],11.7 s
same,Plat,[4],112.9 x10_4/uL
same,RBC,[4],666.6 x10_4/ul
same,Ret,[4],6.2%
same,WBC,[4],126.6 x10_2/uL
same,APTT,[5],16.2 s
same,Bas,[5],0%
same,Eos,[5],0.8%
same,Fbg,[5],236.6 mg/dL
same,Hb,[5],14.2 g/dL
same,Ht,[5],43.1%
same,Lym,[5],86.4%
same,MCH,[5],20.5 pg
same,MCHC,[5],32.9%
same,MCV,[5],62.4 fL
same,Mono,[5],5.8%
same,Neu,[5],7.2%
same,PT,[5],11.8 s
same,Plat,[5],114.5 x10_4/uL
same,RBC,[5],689.8 x10_4/ul
same,Ret,[5],5.1%
same,WBC,[5],134.6 x10_2/uL
same,APTT,[6],16.9 s
same,Bas,[6],0%
same,Eos,[6],1%
same,Fbg,[6],255.2 mg/dL
same,Hb,[6],15.1 g/dL
same,Ht,[6],45.3%
same,Lym,[6],83.6%
same,MCH,[6],19.6 pg
same,MCHC,[6],33.4%
same,MCV,[6],58.6 fL
same,Mono,[6],3.8%
same,Neu,[6],11.4%
same,PT,[6],11.9 s
same,Plat,[6],101.6 x10_4/uL
same,RBC,[6],774.2 x10_4/ul
same,Ret,[6],3.1%
same,WBC,[6],136.4 x10_2/uL
same,KIDNEY_L,[4],1.2 g
same,KIDNEY_R,[4],1.2 g
same,KIDNEY_TOTAL,[4],2.4 g
same,KIDNEY_L,[5],1.3 g
same,KIDNEY_R,[5],1.3 g
same,KIDNEY_TOTAL,[5],2.6 g
same,KIDNEY_L,[6],1.5 g
same,KIDNEY_R,[6],1.5 g
same,KIDNEY_TOTAL,[6],3 g
same,LIVER,[4],14.5 g
same,LIVER,[5],16.3 g
same,LIVER,[6],18.6 g
same,A/G,[4],2
same,ALP,[4],1041.2 IU/L
same,ALT,[4],33.2 IU/L
same,AST,[4],61.4 IU/L
same,BUN,[4],19.4 mg/dL
same,CRE,[4],0.6 mg/dL
same,Ca,[4],11.3 mg/dL
same,Cl,[4],106.4 meq/L
same,DBIL,[4],0.006 mg/dL
same,GLC,[4],192.2 mg/dL
same,IP,[4],8.4 mg/dL
same,K,[4],4.8 meq/L
same,LDH,[4],105.8 IU/L
same,Na,[4],140 meq/L
same,PL,[4],163.8 mg/dL
same,RALB,[4],4.1 g/dL
same,TBIL,[4],0.4 mg/dL
same,TC,[4],88 mg/dL
same,TG,[4],134.2 mg/dL
same,TP,[4],6.3 g/dL
same,gamma-GTP,[4],1 IU/L
same,A/G,[5],1.9
same,ALP,[5],898.8 IU/L
same,ALT,[5],32 IU/L
same,AST,[5],53.2 IU/L
same,BUN,[5],22.6 mg/dL
same,CRE,[5],0.6 mg/dL
same,Ca,[5],10.8 mg/dL
same,Cl,[5],106.2 meq/L
same,DBIL,[5],0.006 mg/dL
same,GLC,[5],201.2 mg/dL
same,IP,[5],8.3 mg/dL
same,K,[5],4.7 meq/L
same,LDH,[5],89.8 IU/L
same,Na,[5],139.6 meq/L
same,PL,[5],151.4 mg/dL
same,RALB,[5],4.1 g/dL
same,TBIL,[5],0.3 mg/dL
same,TC,[5],72.2 mg/dL
same,TG,[5],141.2 mg/dL
same,TP,[5],6.3 g/dL
same,gamma-GTP,[5],1 IU/L
same,A/G,[6],1.7
same,ALP,[6],678.8 IU/L
same,ALT,[6],31.6 IU/L
same,AST,[6],65 IU/L
same,BUN,[6],21.4 mg/dL
same,CRE,[6],0.7 mg/dL
same,Ca,[6],10.7 mg/dL
same,Cl,[6],107 meq/L
same,DBIL,[6],0.004 mg/dL
same,GLC,[6],185.2 mg/dL
same,IP,[6],7.5 mg/dL
same,K,[6],4.4 meq/L
same,LDH,[6],90.4 IU/L
same,Na,[6],140.4 meq/L
same,PL,[6],157.4 mg/dL
same,RALB,[6],4.3 g/dL
same,TBIL,[6],0.3 mg/dL
same,TC,[6],80 mg/dL
same,TG,[6],179.2 mg/dL
same,TP,[6],6.8 g/dL
same,gamma-GTP,[6],1.8 IU/L
same,TERMINAL_BW,[7],240.2 g
same,APTT,[7],16.8 s
same,Bas,[7],0%
same,Eos,[7],0.6%
same,Fbg,[7],308.4 mg/dL
same,Hb,[7],12.7 g/dL
same,Ht,[7],38%
same,Lym,[7],68.4%
same,MCH,[7],21.5 pg
same,MCHC,[7],33.5%
same,MCV,[7],64.4 fL
same,Mono,[7],12.4%
same,Neu,[7],18.6%
same,PT,[7],11.1 s
same,Plat,[7],98 x10_4/uL
same,RBC,[7],589.8 x10_4/ul
same,Ret,[7],7.9%
same,WBC,[7],137.8 x10_2/uL
same,KIDNEY_L,[7],1.1 g
same,KIDNEY_R,[7],1.1 g
same,KIDNEY_TOTAL,[7],2.2 g
same,LIVER,[7],12.4 g
same,A/G,[7],1.7
same,ALP,[7],739.2 IU/L
same,ALT,[7],29.8 IU/L
same,AST,[7],54 IU/L
same,BUN,[7],16.2 mg/dL
same,CRE,[7],0.6 mg/dL
same,Ca,[7],10.5 mg/dL
same,Cl,[7],107.6 meq/L
same,DBIL,[7],0.038 mg/dL
same,GLC,[7],191.6 mg/dL
same,IP,[7],8.3 mg/dL
same,K,[7],4.6 meq/L
same,LDH,[7],160.4 IU/L
same,Na,[7],140.4 meq/L
same,PL,[7],147 mg/dL
same,RALB,[7],3.4 g/dL
same,TBIL,[7],0.3 mg/dL
same,TC,[7],76.2 mg/dL
same,TG,[7],135.4 mg/dL
same,TP,[7],5.5 g/dL
same,gamma-GTP,[7],1.6 IU/L
same,TERMINAL_BW,[8],244 g
same,APTT,[8],18.4 s
same,Bas,[8],0%
same,Eos,[8],0.8%
same,Fbg,[8],377 mg/dL
same,Hb,[8],11.7 g/dL
same,Ht,[8],35%
same,Lym,[8],51.5%
same,MCH,[8],20.4 pg
same,MCHC,[8],33.4%
same,MCV,[8],61.1 fL
same,Mono,[8],12.2%
same,Neu,[8],36%
same,PT,[8],11.8 s
same,Plat,[8],143.2 x10_4/uL
same,RBC,[8],571.8 x10_4/ul
same,Ret,[8],10.2%
same,WBC,[8],128.2 x10_2/uL
same,PT,[9],11.3 s
same,KIDNEY_L,[8],1.1 g
same,KIDNEY_R,[8],1.1 g
same,KIDNEY_TOTAL,[8],2.2 g
same,LIVER,[8],11.6 g
same,A/G,[8],1.2
same,ALP,[8],1313 IU/L
same,ALT,[8],31.2 IU/L
same,AST,[8],91.5 IU/L
same,BUN,[8],19.8 mg/dL
same,CRE,[8],0.6 mg/dL
same,Ca,[8],10.8 mg/dL
same,Cl,[8],102.2 meq/L
same,DBIL,[8],0.1 mg/dL
same,GLC,[8],169.8 mg/dL
same,IP,[8],11.3 mg/dL
same,K,[8],6.1 meq/L
same,LDH,[8],180.8 IU/L
same,Na,[8],133.5 meq/L
same,PL,[8],135.8 mg/dL
same,RALB,[8],2.9 g/dL
same,TBIL,[8],0.4 mg/dL
same,TC,[8],71 mg/dL
same,TG,[8],106.5 mg/dL
same,TP,[8],5.6 g/dL
same,gamma-GTP,[8],5.8 IU/L
same,TBIL,[9],0.3 mg/dL
same,TC,[9],66.5 mg/dL

# Reference: ChEMBL document CHEMBL3885861, “Open TG-GATES”
